Laboratory results: patent US20040152672A1, “Indole compounds useful for the treatment of cancer” (priority 2000, published 2004)
Like-named read-outs stand apart in the source and are kept apart here. Residues, ends and D or L forms follow the SMILES beside them. *: point of attachment. Cbz = O=C(OCc1ccccc1)*; CH2F = FC*

Assays:
[1] = test system: normal peripheral blood lymphocytes (PBL); experiment: Viability of normal PBLs, erythrocin B exclusion assay; assay type: cell-based, human; conditions: FIG. 1; only at this concentration
normal B cells = experiment: Viability of normal B lymphocytes (anti-CD19) by DiOC6 fluorescence; assay type: cell-based, human; conditions: 1.0 mM etodolac, 24 hours
Method: Peripheral blood lymphocytes from a normal donor were cultured with 1.0 mM etodolac for 24 hours. Then B lymphocytes were identified by staining with anti-CD19 antibody, and viability was assessed by DiOC6 fluorescence. […] When the same viability assay was run with purified CLL cells from the peripheral blood of a CLL patient, the results were different. […] More than 95% of the treated cells were malignant B lymphocytes.

CLL cells [2] = experiment: Viability of CLL cells in culture, erythrocin B exclusion assay; assay type: cell-based, human; conditions: for killing of CLL cells by either drug alone: fludarabine 10 nM or etodolac 10 μM alone, 48 hours, FIG. 3
CLL cells [3] = experiment: In vitro survival of CLL cells taken from patients before and after etodolac tablets; assay type: in vivo, human; conditions: patient two
Method: Heparinized blood was taken from two patients ([…]) with CLL. Then each patient immediately took a 400 mg etodolac tablet, and a second tablet 12 hours later. After another 12 hours, a second blood specimen was obtained. The CLL cells were isolated and their survival in vitro were compared in RPMI 1640 medium containing 10% autologous plasma, as described in Example 1. The circles show CLL cells before etodolac treatment. In FIGS. 6-7, the upward pointing triangles represent CLL cell viability after etodolac treatment, wherein the cells are dispersed in medium containing the pre-treatment plasma. The downward pointing triangles are CLL cells after treatment maintained in medium with the post-treatment plasma.
FIG. 8 is a flow cytometric analysis of CLL cells from patient two before and after etodolac treatment. […]
To conduct the flow cytometric analysis, the mitochondrial transmembrane potential was analyzed by 3,3′ dihexyloxacarboncyanide iodide (DiOC6), cell membrane permeability by propidium iodide (PI)3 and mitochondrial respiration by dihydrorhodamine 123 (DHR) (See J. A. Royall et al., Arch. Biochem. Biophys., 302, 348 (1993)). […] Cells were analyzed within 30 minutes in a Becton Dickinson FAC-Scalibur cytofluorometer. After suitable […], fluorescence was recorded at different wavelength: DiOC6 and DHR at 525 nm (Fl-1) and PI at 600 nm (FL-3).

PC-3 [4] = test system: PC-3
LNCaP-FGC [5] = test system: LNCaP-FGC
Alva-31 [6] = test system: Alva-31
OVCAR-3 [7] = test system: OVCAR-3
MDA-MB-231 [8] = test system: MDA-MB-231
HCT-116 [9] = test system: HCT-116
A549 [10] = test system: A549
[11] = cited from earlier work
Bcl-2 and Bax = Bcl-2 and Bax levels in LNCaP cells; conditions: etodolac incubation; data not shown
Mcl-1 = Mcl-1 level in LNCaP cells by SDS-PAGE immunoblot; conditions: for effect on the etodolac-induced fall in Mcl-1 levels: co- or pre-incubation with etodolac, MG-132 at 5.0 μM
Bag-1 = Bag-1 level in LNCaP cells by SDS-PAGE immunoblot; conditions: for effect on the etodolac-induced fall in Bag-1 levels: co- or pre-incubation with etodolac, MG-132 at 5.0 μM
PC-3 [12] = experiment: Cytotoxicity by MTT assay, confirmed by FACS propidium iodide uptake
LNCaP-FGC [13] = experiment: as above
Alva-31 [14] = experiment: as above
OVCAR-3 [15] = experiment: as above
MDA-MB-231 [16] = experiment: as above
HCT-116 [17] = experiment: as above
A549 [18] = experiment: as above
[19] = in vivo
adjuvant polyarthritis = conditions: reduction in paw volume of rats with adjuvant polyarthritis, prostaglandin synthetase inhibitory activity; Demerson et al.; cited from earlier work
PPAR-γ = PPAR-γ (Mus musculus, UniProt P37238); conditions: RAW264.7, 24 hours; concentrations readily achieved in human plasma; FIG. 13
Sequence of PPAR-γ (P37238 31-505 limits assumed): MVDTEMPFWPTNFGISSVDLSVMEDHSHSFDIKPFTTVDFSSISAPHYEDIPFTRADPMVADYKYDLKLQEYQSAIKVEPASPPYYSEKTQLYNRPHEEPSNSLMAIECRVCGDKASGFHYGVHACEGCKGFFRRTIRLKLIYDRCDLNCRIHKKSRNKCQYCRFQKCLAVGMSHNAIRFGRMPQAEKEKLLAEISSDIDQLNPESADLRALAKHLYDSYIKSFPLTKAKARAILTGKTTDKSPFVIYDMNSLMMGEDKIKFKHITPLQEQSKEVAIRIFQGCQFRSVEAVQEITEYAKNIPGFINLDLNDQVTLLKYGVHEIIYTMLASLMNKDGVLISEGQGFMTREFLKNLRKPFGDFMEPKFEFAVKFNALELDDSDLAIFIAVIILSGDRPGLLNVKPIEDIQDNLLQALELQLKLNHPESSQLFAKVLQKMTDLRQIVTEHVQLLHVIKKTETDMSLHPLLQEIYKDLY

MRP = MRP (Homo sapiens, UniProt P33527); conditions: WO98/18490; cited from earlier work
Sequence of MRP (P33527 whole entry): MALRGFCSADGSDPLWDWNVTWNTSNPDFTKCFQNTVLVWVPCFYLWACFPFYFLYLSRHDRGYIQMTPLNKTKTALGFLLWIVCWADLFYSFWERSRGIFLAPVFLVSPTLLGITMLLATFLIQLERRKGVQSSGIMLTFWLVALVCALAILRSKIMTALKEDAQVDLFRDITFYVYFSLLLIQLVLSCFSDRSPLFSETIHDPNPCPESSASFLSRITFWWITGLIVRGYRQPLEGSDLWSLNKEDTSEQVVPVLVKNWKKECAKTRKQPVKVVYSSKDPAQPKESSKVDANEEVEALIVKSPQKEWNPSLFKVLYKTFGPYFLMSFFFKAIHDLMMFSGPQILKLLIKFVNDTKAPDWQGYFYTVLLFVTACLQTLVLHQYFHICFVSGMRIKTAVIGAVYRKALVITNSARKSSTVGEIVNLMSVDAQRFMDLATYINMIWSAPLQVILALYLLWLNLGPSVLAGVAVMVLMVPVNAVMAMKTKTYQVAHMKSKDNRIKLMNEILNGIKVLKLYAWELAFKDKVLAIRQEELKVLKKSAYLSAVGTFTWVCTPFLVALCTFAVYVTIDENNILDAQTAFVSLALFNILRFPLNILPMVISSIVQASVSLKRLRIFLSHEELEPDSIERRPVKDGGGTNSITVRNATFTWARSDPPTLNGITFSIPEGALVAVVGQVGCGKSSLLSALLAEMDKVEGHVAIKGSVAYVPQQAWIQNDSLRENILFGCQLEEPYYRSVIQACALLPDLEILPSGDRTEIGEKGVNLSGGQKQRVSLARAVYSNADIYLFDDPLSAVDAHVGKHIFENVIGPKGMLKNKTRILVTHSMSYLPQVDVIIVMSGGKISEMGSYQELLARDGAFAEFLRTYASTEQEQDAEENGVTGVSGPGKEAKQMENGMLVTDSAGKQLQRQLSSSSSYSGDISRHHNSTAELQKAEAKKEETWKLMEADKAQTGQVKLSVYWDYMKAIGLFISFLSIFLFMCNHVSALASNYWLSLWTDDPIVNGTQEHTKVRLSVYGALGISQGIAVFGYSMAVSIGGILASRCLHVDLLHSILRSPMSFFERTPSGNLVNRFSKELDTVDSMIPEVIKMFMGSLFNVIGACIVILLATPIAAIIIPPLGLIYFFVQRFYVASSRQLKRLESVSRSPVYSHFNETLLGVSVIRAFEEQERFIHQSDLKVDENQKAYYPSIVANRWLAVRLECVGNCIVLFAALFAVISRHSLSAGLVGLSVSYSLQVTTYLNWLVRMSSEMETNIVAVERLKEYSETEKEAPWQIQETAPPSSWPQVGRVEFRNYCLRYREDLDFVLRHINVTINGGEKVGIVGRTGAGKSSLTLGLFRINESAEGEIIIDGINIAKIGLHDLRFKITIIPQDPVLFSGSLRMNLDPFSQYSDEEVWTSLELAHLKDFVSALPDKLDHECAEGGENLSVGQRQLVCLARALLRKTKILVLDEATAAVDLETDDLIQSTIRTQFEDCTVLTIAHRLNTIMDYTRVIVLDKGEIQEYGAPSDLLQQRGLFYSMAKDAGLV

prostate cancer = conditions: TRAMP mouse; Wechter et al. 2000; cited from earlier work
B-cell CLL cells = conditions: Bellosillo et al., Blood 1998; cited from earlier work
[20] = 100 μM etodolac, as early as two hours

Description for prostate cancer tissue: The tissues were next fixed in 4% paraformaldehyde in PBS, embedded in paraffin, sectioned and stained with hematoxylin and eosin.

Compound: CCc1cccc2c3c([nH]c12)C(CC)(CC(=O)O)OCC3 (stereo not drawn) [Etodolac R/S, 1,8-diethyl-1,3,4,9-tetrahydro[3,4-6]indole-1-acetic acid]
- concentration at which significant death of normal PBLs occurred [1]: 800 µM
- viability of normal B cells compared to control cultures (normal B cells): did not reduce the viability
- CLL cells killed (CLL cells [2]; 200 μM, 48 hour exposure, FIG. 2): 50%
- killing of CLL cells by either drug alone (CLL cells [2]): ineffective
- apoptotic CLL cells (low DiOC6 staining, left lower box) after versus before treatment (CLL cells [3]; flow cytometry, detectable at 12 hours, increases after 24 hours, FIG. 8): much higher after the drug
- in vitro survival of CLL cells after treatment compared to before treatment (CLL cells [3]; two 400 mg tablets 12 hours apart, FIG. 6): shortened survival
- IC50 (PC-3 [4]): 340 ± 20 µM
- IC50 (LNCaP-FGC [5]): 400 ± 35 µM
- IC50 (Alva-31 [6]): > 1000 µM
- IC50 (OVCAR-3 [7]): > 1000 µM
- IC50 (MDA-MB-231 [8]): > 1000 µM
- IC50 (HCT-116 [9]): 450 ± 15 µM
- IC50 (SW260): 1000 ± 120 µM
- Phenoty (SW260; SW260, sensitivity of the cell line to etodolac): Resistant
- IC50 (A549 [10]): > 1000 µM
- effect on normal basal cells in prostatectomy samples (prostate cancer tissue): did not affect
- elimination half-life ([11]; in vivo): 6 to 8 h
- Bcl-2 and Bax levels (Bcl-2 and Bax): did not alter
- Mcl-1 levels (Mcl-1; [20]): fell
- Bag-1 levels (Bag-1; [20]): fell
- Phenoty (PC-3 [12]; PC-3, sensitivity of the cell line to etodolac): Sensitive
- Phenoty (LNCaP-FGC [13]; LNCaP-FGC, sensitivity of the cell line to etodolac): Sensitive
- Phenoty (Alva-31 [14]; Alva-31, sensitivity of the cell line to etodolac): Resistant
- Phenoty (OVCAR-3 [15]; OVCAR-3, sensitivity of the cell line to etodolac): Resistant
- Phenoty (MDA-MB-231 [16]; MDA-MB-231, sensitivity of the cell line to etodolac): Resistant
- Phenoty (HCT-116 [17]; HCT-116, sensitivity of the cell line to etodolac): Sensitive
- Phenoty (A549 [18]; A549, sensitivity of the cell line to etodolac): Resistant

Compound: CCc1cccc2c3c([nH]c12)[C@@](CC)(CC(=O)O)OCC3 [Etodolac R]
- maximal plasma concentration in a human subject (should yield) [19]: about 400 μM
- anti-inflammatory activity (adjuvant polyarthritis): No anti-inflammatory activity was discernible
- maximum plasma concentration ([11]; after a 200 mg dose in six elderly patients): about 33 μM
- plasma concentrations, fold higher than those of the S-enantiomer ([11]; after the administration of RS-etodolac): about 10 fold
- Mcl-1 degradation by the enantiomers (Mcl-1): induced Mcl-1 degradation at equivalent concentrations
- IC50 (PC-3 [12]; read-out: IC50 cytotoxicity, PC-3 (prostate), MTT after three days continuous exposure): 150 ± 15 µM
- IC50 (LNCaP-FGC [13]; read-out: IC50 cytotoxicity, LNCaP-FGC (prostate), MTT after three days continuous exposure): 270 ± 50 µM
- IC50 (Alva-31 [14]; read-out: IC50 cytotoxicity, Alva-31 (prostate), MTT after three days continuous exposure): > 1000 µM
- IC50 (OVCAR-3 [15]; read-out: IC50 cytotoxicity, OVCAR-3 (ovarian), MTT after three days continuous exposure): > 1000 µM
- IC50 (MDA-MB-231 [16]; read-out: IC50 cytotoxicity, MDA-MB-231 (breast), MTT after three days continuous exposure): > 1000 µM
- IC50 (HCT-116 [17]; read-out: IC50 cytotoxicity, HCT-116 (colon), MTT after three days continuous exposure): 280 ± 20 µM
- IC50 (A549 [18]; read-out: IC50 cytotoxicity, A549 (lung), MTT after three days continuous exposure): > 1000 µM
- activation of PPAR-γ reporter gene construct (PPAR-γ): activated

Compound: CCc1cccc2c3c([nH]c12)C(CC)(CC(=O)O)OCC3 (stereo not drawn) [Etodolac S]
- IC50 (PC-3 [4]): 800 µM
- IC50 (LNCaP-FGC [5]): 220 ± 20 µM
- IC50 (Alva-31 [6]): > 1000 µM
- IC50 (OVCAR-3 [7]): > 1000 µM
- IC50 (MDA-MB-231 [8]): > 1000 µM
- IC50 (HCT-116 [9]): 420 ± 50 µM
- IC50 (A549 [10]): > 1000 µM
- anti-inflammatory activity (adjuvant polyarthritis): almost all of the anti-inflammatory activity of the racemate
- Mcl-1 degradation by the enantiomers (Mcl-1): induced Mcl-1 degradation at equivalent concentrations
- activation of PPAR-γ reporter gene construct (PPAR-γ): activated

Compound: CC(C)C[C@@H](C=O)NC(=O)[C@H](CC(C)C)NC(=O)[C@H](CC(C)C)NC(=O)OCc1ccccc1 [MG-132] (Cbz-Leu-Leu-Leu-aldehyde)
- effect on the etodolac-induced fall in Mcl-1 levels (Mcl-1): prevented
- effect on the etodolac-induced fall in Bag-1 levels (Bag-1): prevented

Compound: COc1ccc2cc([C@H](C)C(=O)O)ccc2c1 [Naproxen]
- increase of the potency of the anti-cancer drug (MRP): inactive

Compound: C[C@@H](C(=O)O)c1ccc(-c2ccccc2)c(F)c1 [R-flurbiprofen]
- progression of prostate cancer (prostate cancer): inhibited progression of prostate cancer

Compound: CC(NC(=O)C(NC(=O)OCc1ccccc1)C(C)C)C(=O)NC(CC(=O)O)C(=O)CF (stereo not drawn) [Z-VAD] (Cbz-Val-Ala-Asp-CH2F; configuration not given here)
- effect on the etodolac-induced fall in Mcl-1 levels (Mcl-1): did not prevent
- effect on the etodolac-induced fall in Bag-1 levels (Bag-1): did not prevent

Compound: CC(=O)Oc1ccccc1C(=O)O [aspirin]
- viability of B-cell CLL cells in vitro (B-cell CLL cells): reduced the viability

Compound: Nc1nc(F)nc2c1ncn2[C@@H]1O[C@H](CO)[C@@H](O)[C@@H]1O [fludarabine]
- killing of CLL cells by either drug alone (CLL cells [2]): ineffective

Compound: CN1C(C(=O)Nc2ccccn2)=C(O)c2ccccc2S1(=O)=O [piroxicam]
- increase of the potency of the anti-cancer drug (MRP): inactive

Compound: O=C(O)c1ccccc1O [salicylate]
- viability of B-cell CLL cells in vitro (B-cell CLL cells): reduced the viability
